Results: PMC3107525 (The Journal of neuroscience : the official journal of the …, 2011)
Read-outs that look alike come from different tables or passages of the source.

How the values were obtained:
SERT = SERT (Rattus norvegicus, UniProt P31652); assay type: in vivo; conditions: exogenously applied, anesthetized rats, mean ± SEM, n = 10
DAT = DAT (Rattus norvegicus, UniProt P23977); assay type: in vivo; conditions: 10 mg/kg i.p., dorsal striatum
hSERT WT [1] = target: T1, hSERT WT (Homo sapiens, UniProt P31645); conditions: gluconate substituted for Cl-
hSERT WT [2] = target: T1, hSERT WT
hSERT D98G = hSERT D98G (Homo sapiens, UniProt P31645, D98G)
hSERT WT [3] = target: T1, hSERT WT; conditions: 0.2-0.5 nM [125I]RTI-55, 1 hour on ice
hSERT Y95F/C109A/I179C = hSERT Y95F/C109A/I179C (Homo sapiens, UniProt P31645, C109A/I179C/Y95F); test: Uptake with MTSET-sensitive mutant in COS-7 cells; assay type: cell-based
hSERT WT [4] = target: T1, hSERT WT; conditions: 20 μM 5HT or 2 mM DA extracellular
hSERT Y95F [5] = target: T2, hSERT Y95F (Homo sapiens, UniProt P31645, Y95F)
hSERT WT [6] = target: T1, hSERT WT; remark: listed apart in the source
hSERT WT [7] = target: T1, hSERT WT; remark: listed apart in the source
hSERT Y95F [8] = target: T2, hSERT Y95F; remark: listed apart in the source
NCCc1ccc(O)c(O)c1 = test: cells, lysate or membranes; conditions: other: substrate uptake, COS-7, 96 well plates, 10 min, room temperature; pH 7.4
[9] = substrate uptake, COS-7, 96 well plates, 10 min, room temperature
[10] = read-out: IC50 for inhibition of [3H]5HT uptake
[11] = read-out: IC50 for inhibition of [3H]DA uptake

Sequence of SERT (P31652 whole entry): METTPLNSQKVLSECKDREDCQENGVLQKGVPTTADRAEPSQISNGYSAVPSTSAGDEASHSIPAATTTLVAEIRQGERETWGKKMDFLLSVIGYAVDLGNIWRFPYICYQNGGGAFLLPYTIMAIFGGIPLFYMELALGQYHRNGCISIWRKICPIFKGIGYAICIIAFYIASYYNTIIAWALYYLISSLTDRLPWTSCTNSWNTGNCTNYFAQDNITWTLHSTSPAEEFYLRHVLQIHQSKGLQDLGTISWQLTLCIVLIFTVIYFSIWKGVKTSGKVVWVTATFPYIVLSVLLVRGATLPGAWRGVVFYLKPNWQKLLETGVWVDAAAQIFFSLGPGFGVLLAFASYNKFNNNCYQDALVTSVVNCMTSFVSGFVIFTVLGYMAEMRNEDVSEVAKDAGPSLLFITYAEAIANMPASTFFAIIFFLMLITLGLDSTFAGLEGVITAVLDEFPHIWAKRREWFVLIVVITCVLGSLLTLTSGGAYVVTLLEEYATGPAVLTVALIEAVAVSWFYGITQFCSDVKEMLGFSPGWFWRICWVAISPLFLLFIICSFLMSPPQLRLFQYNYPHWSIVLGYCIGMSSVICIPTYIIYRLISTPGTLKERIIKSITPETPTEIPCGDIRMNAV
Sequence of DAT (P23977 whole entry): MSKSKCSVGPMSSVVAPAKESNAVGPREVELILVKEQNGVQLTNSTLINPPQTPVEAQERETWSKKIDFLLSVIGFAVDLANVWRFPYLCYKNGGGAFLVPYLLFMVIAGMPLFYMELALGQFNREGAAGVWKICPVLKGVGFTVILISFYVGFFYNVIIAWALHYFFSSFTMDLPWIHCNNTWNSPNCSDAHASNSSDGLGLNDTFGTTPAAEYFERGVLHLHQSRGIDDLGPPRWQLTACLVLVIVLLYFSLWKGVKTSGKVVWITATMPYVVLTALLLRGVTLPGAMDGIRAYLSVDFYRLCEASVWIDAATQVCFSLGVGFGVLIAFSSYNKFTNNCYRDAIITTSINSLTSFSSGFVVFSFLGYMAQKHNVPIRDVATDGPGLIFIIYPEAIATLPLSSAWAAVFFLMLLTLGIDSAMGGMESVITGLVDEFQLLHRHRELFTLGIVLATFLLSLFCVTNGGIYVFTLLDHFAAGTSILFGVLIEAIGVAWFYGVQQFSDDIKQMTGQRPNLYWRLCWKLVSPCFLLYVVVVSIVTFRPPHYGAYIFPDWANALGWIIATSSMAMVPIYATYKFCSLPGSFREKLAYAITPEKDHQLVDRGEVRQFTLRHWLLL

NCCc1c[nH]c2ccc(O)cc12 [5HT, serotonin]
baseline clearance time (T80) (SERT): 73.4 ± 8.3 s

CN(C)CCCC1(c2ccc(F)cc2)OCc2cc(C#N)ccc21 (centres unmarked) [Citalopram, citalopram]
effect on DA clearance time (T80) (DAT): unaffected

NCCc1ccc(O)c(O)c1 [DA, dopamine]
baseline clearance time (T80) (SERT): 79.5 ± 4.1 s | apparent affinity for Cl- in substrate transport (hSERT WT [1]): ~ 100 mM | mode of inhibition of 5HT uptake (hSERT WT [2]): competitive inhibitor | DA uptake activity (hSERT D98G): no DA uptake activity | relation of 5HT and DA binding sites (hSERT WT [3]): mutually exclusive | transport of DA (hSERT Y95F/C109A/I179C; before or after MTSET treatment): < 2% | efflux of preloaded [3H]5HT (hSERT WT [4]): substantial and comparable efflux | efflux of preloaded [3H]DA (hSERT WT [4]): no significant efflux | Vmax (hSERT Y95F [5]; [9]): 2.4 ± 0.52 pmol/well/min | Vmax for DA transport relative to Vmax for 5HT transport (hSERT Y95F [5]; times higher): 4–5 times | Vmax (hSERT WT [6]; [9]): 2.7 ± 0.65 pmol/well/min | Vmax for DA transport relative to Vmax for 5HT transport (hSERT WT [6]; times higher): 4–5 times

CNC(C)Cc1ccc2c(c1)OCO2 (centres unmarked) [MDMA, 3,4-methylenedioxymethamphetamine]
IC50 (hSERT WT [7]; [10]): 4400 ± 840 nM | IC50 (hSERT WT [7]; [11]): 2700 ± 330 nM | IC50 (hSERT Y95F [8]; [10]): 3100 ± 430 nM | IC50 (hSERT Y95F [8]; [11]): 940 ± 110 nM

C[N+](C)(C)CCSS(C)(=O)=O [MTSET, [2-(trimethylammonium)ethyl] methane-thiosulfonate]
decrease of 5HT uptake activity (hSERT Y95F/C109A/I179C; 10 mM MTSET, 10 min): > 90%

hSERT WT (Homo sapiens)
Km (NCCc1ccc(O)c(O)c1): 78 ± 5.7 µM
